From patent publication US10981911B2, “Imidazopyrrolopyridine as inhibitors of the JAK family of kinases” (Janssen Pharmaceutica NV, priority 2016, dated 2021)

Tests used:
Type in all cases: biochemical
JAK1-JH1JH2 = JAK1-JH1JH2 (Homo sapiens (Human), UniProt P23458); experiment: Enzymatic inhibition assay (RapidFire HTMS), JAK1; conditions: 12.5 μM ATP, 200 μM substrate; read-out: JAK1-JH2JH1 IC50
From the text: (§1) LC/MS grade Water and Acetonitrile (ACN), were purchased from HoneyWell, Burdick & Jackson (Muskegon, Mich., USA). Dimethylsulfoxide 99.8% (DMSO) and Trifluoroacetic Acid 99.5% (TFA) were purchased from EMD Chemical (Gibbstown, N.J., USA). Adenosine triphosphate (ATP), 4-Morpholinepropanesulfonic acid (MOPS), Magnesium chloride (MgCl2), ethylenediaminetetraacetic acid (EDTA), dithiothreitol (DTT), formic acid >95% (FA) and Tween-20 were purchased from Sigma (St Louis, Mo., USA). 384-well polypropylene plates, Cat #781280 were purchased from Greiner (Monroe, N.C.), RapidFire™ cartridge A C4 Column (Agilent Technologies, Santa Clara, Calif.).
(§2) The HTMS experiments were performed in positive ionization mode on a RapidFire 300 instrument (Agilent Technologies, Santa Clara, Calif.), coupled with an ABSiex QTrap 4000 system with an Electrospray Ionization source (RF-MS) (Concord, ON, Canada). […] The entire system was operated using the RapidFire software interfaced with Analyst software for the mass spectrometer.
(§3) 11-point dosing series were made for each compound by serially diluting 1:3 or 1:4 in DMSO, with point 12 being a DMSO control. From the serial dilution plates, sample was transferred to a 384 wells assay plate (#781280, Greiner, Monroe, N.C.) using Labcyte Echo (Sunnyvale, Calif.), or Biosero ATS (San Diego, Calif.). The compounds were tested in duplicate. Column 12 was used for positive controls, and column 24 contained negative controls with no enzyme added. A compound from our internal collection, with inhibitory activity for JAK isoforms, was used as a reference compound. The final concentration of DMSO was ≤0.25% in a 20 μL reaction. […] The Tyk2 enzyme was pre-incubated with 2 mM ATP for 30 min prior to the reaction initiation. Immediately after the addition of the enzyme to the reaction mixture, the plate was centrifuged at 1000 rpm for 1 minute and incubated at 25° C. for 45 minutes for JAK 3 and 90 minutes for JAK1, JAK2 and Tyk2. The reaction was quenched by the addition of 20 μL of 0.5% TFA containing 0.15 μM of internal standard peptide using Multidrop Combi reagent dispenser (Thermo Scientific, Waltham, Mass.). […] After the quench, the assay plate was centrifuged at 3000 rpm for 3 minutes and sealed with pierceable aluminum foil (Cat #06644-001, Agilent) using a PlateLoc (Agilent Technologies, Santa Clara, Calif.). The plates then were transferred on to the RapidFire for the MS analysis. Compound inhibition was assessed by a decrease of the phosphorylated product levels in sample wells compared to the non-inhibited enzyme reaction.
(§4) The sample analysis on the RapidFire was performed using a mobile phase A consisting of Water/TFA/FA (100:0.01:0.1, v/v/v), a mobile phase B consisting of ACN/Water/TFA/FA (80:20:0.01:0.1, v/v/v). […] The samples were aspirated directly from the 384 assay plate and delivered onto RF-MS microscale solid-phase C4 extraction cartridge (Type A). The undesired component such as salt, cofactor, detergent and large protein were washed out and the retained analytes (substrate, product and IS) were coeluted directly onto the ABSiex Qtrap 4000 system.

JAK2-JH1JH2 = JAK2-JH1JH2 (Homo sapiens (Human), UniProt O60674); experiment: Enzymatic inhibition assay (RapidFire HTMS), JAK2; conditions: 30 μM ATP, 40 μM substrate
JAK2-JH1JH2, sequence (O60674 532-1132): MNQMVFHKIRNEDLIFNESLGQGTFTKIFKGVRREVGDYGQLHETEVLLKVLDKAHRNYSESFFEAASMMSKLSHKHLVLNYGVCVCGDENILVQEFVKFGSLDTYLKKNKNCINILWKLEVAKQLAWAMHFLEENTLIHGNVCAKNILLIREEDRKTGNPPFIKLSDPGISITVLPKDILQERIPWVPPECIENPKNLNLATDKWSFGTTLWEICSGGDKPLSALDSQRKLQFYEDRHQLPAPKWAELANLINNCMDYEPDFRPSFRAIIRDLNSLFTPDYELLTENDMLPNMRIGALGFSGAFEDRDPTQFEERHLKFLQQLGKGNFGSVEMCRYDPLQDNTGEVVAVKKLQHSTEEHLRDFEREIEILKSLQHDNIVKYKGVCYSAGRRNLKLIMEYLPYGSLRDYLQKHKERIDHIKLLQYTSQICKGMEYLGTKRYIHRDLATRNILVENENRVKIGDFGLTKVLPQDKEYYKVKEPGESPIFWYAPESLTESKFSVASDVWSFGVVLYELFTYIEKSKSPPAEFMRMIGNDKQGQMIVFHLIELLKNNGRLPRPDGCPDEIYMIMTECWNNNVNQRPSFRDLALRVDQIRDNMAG
From the text: as §1, §2, §3, §4

JAK3-JH1JH2 = JAK3-JH1JH2 (Homo sapiens (Human), UniProt P52333); experiment: Enzymatic inhibition assay (RapidFire HTMS), JAK3; conditions: 150 μM ATP, 40 μM substrate
JAK3-JH1JH2, sequence (P52333 512-1124): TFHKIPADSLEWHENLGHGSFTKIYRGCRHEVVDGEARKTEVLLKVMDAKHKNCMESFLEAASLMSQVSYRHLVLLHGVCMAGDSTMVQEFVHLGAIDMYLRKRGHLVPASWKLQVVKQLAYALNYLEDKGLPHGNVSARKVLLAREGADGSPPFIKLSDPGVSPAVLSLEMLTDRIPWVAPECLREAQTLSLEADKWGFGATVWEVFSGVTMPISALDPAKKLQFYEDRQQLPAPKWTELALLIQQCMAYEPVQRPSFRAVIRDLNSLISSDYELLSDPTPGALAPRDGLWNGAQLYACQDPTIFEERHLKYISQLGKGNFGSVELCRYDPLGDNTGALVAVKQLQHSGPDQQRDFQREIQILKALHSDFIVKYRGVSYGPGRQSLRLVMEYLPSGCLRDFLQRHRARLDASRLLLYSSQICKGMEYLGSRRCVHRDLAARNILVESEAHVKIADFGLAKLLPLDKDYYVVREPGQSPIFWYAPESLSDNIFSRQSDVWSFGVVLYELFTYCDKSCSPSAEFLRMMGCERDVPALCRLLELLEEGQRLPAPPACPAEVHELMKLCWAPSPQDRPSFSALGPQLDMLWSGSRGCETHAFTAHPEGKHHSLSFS
From the text: as §1, §2
as §3, with “compound.” for “compound. The final concentration of DMSO was ≤0.25% in a 20 μL reaction.”
as §4

Tyk2-JH1JH2 = Tyk2-JH1JH2 (Homo sapiens (Human), UniProt P29597, C1142A/C936A); experiment: Enzymatic inhibition assay (RapidFire HTMS), Tyk2; conditions: 50 μM ATP, 200 μM substrate
Tyk2-JH1JH2, sequence (P29597 580-1182 C936A/C1142A): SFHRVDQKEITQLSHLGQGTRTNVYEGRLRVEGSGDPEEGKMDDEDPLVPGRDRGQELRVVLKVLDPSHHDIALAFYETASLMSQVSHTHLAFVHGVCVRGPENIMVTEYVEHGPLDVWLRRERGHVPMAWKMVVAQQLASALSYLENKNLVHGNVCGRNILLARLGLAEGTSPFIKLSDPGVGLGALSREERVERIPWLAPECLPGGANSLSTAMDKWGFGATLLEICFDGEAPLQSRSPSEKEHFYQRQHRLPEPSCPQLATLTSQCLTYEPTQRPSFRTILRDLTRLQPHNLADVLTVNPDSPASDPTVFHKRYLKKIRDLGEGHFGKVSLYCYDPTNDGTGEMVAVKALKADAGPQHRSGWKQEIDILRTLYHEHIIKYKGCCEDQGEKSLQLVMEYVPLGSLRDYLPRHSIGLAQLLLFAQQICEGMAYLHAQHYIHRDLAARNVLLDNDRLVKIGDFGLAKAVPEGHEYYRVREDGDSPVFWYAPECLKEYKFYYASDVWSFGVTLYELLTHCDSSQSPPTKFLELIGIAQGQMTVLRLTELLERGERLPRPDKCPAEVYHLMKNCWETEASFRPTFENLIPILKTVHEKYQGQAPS
From the text: as §1, §2, §3, §4

JAK1-JH1JH2, sequence (P23458 574-1154): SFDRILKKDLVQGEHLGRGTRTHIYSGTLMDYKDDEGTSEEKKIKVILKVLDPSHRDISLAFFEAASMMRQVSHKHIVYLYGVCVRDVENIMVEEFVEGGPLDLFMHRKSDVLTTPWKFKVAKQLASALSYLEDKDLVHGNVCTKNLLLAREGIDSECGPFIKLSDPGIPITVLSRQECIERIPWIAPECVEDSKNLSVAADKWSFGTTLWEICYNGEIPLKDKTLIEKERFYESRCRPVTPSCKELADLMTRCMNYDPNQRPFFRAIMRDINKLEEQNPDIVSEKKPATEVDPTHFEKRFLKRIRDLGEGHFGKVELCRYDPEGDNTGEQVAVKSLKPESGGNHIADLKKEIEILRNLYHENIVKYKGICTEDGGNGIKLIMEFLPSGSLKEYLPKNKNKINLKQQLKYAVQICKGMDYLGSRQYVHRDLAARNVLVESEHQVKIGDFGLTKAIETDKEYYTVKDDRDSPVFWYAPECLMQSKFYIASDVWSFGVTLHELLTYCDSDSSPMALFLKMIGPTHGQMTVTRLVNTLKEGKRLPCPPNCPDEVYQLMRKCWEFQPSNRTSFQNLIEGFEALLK

IC50 (JAK1-JH1JH2) [nM] | IC50 (JAK2-JH1JH2) [nM] | IC50 (JAK3-JH1JH2) [nM] | IC50 (Tyk2-JH1JH2) [nM] | Compound
0.1 | 7.1 | 651 | 3.3 | N#CCCS(=O)(=O)NCc1nc2cnc3[nH]ccc3c2n1[C@H]1CC[C@H](CC#N)CC1 [Ex. 13, 2-Cyano-N-((1-((1r,4r)-4-(cyanomethyl)cyclohexyl)-1,6-dihydroimidazo[4,5-d]pyrrolo[2,3-b]pyridin-2-yl)methyl)ethanesulfonamide]
0.1 | 1.8 | 43.7 | 2.8 | N#CC[C@H]1CC[C@H](n2c(CC(=O)NCc3ccncn3)nc3cnc4[nH]ccc4c32)CC1 [Ex. 14, 2-(1-((1r,4r)-4-(Cyanomethyl)cyclohexyl)-1,6-dihydroimidazo[4,5-d]pyrrolo[2,3-b]pyridin-2-yl)-N-(pyrimidin-4-ylmethyl)acetamide]
0.1 | 1.2 | 65.8 | 1.4 | [H]/N=C(\c1ccccc1)N(O)Cc1nc2cnc3[nH]ccc3c2n1[C@H]1CC[C@H](CC#N)CC1 [Ex. 17A, (E)-N-((1-((1r,4r)-4-(Cyanomethyl)cyclohexyl)-1,6-dihydroimidazo[4,5-d]pyrrolo[2,3-b]pyridin-2-yl)methyl)-N-hydroxybenzimidamide]
0.5 | 4.5 | 102 | 2.9 | [H]/N=C(/c1ccccc1)N(O)Cc1nc2cnc3[nH]ccc3c2n1[C@H]1CC[C@H](CC#N)CC1 [Ex. 17B, (Z)—N-((1-((1r,4r)-4-(Cyanomethyl)cyclohexyl)-1,6-dihydroimidazo[4,5-d]pyrrolo[23-b]pyridin-2-yl)methyl)-N-hydroxybenzimidamide]
0.1 | 35.3 | 540 | 6.4 | N#CC[C@H]1CC[C@H](n2c(CC(=O)N3CC(O)C3)nc3cnc4[nH]ccc4c32)CC1 [Ex. 18, 2-((1r,4r)-4-(2-(2-(3-Hydroxyazetidin-1-yl)-2-oxoethyl)imidazo[4,5-d]pyrrolo[2,3-b]pyridin-1(6H)-yl)cyclohexyl)acetonitrile]
0.1 | 2.4 | 31.8 | 4.4 | N#CC[C@H]1CC[C@H](NC(=O)Cc2nc3cnc4[nH]ccc4c3n2[C@H]2CC[C@H](CC#N)CC2)CC1 [Ex. 19, N-((1r,4r)-4-(Cyanomethyl)cyclohexyl)-2-(1-((1r,4r)-4-(cyanomethyl)cyclohexyl)-1,6-dihydroimidazo[4,5-d]pyrrolo[2,3-b]pyridin-2-yl)acetamide]
0.1 | 1.2 | 20.5 | 1.9 | N#CC[C@H]1CC[C@H](n2c(CC(=O)Nc3ccccc3)nc3cnc4[nH]ccc4c32)CC1 [Ex. 20, 2-(1-((1r,4r)-4-(Cyanomethyl)cyclohexyl)-1,6-dihydroimidazo[4,5-d]pyrrolo[2,3-b]pyridin-2-yl)-N-phenylacetamide]
0.4 | 43.4 |  | 49.5 | N#CC[C@H]1CC[C@H](n2c(C(=O)N3CCC(O)(c4ccccn4)CC3)nc3cnc4[nH]ccc4c32)CC1 [Ex. 88, 2-((1r,4r)-4-(2-(4-Hydroxy-4-(pyridin-2-yl)piperidine-1-carbonyl)imidazo[4,5-d]pyrrolo[2,3-b]pyridin-1(6H)-yl)cyclohexyl)acetonitrile]
1.2 |  | 408 | 16.1 | CC(C)(C)COC(=O)NCc1nc2cnc3[nH]ccc3c2n1[C@H]1CC[C@H](CC#N)CC1 [Ex. 154, Neopentyl ((1-((1r,4r)-4-(Cyanomethyl)cyclohexyl)-1,6-dihydroimidazo[4,5-d]pyrrolo[2,3-b]pyridin-2-yl)methyl)carbamate]

Continued, compound first:

Compound | IC50 (JAK1-JH1JH2) [nM] | IC50 (JAK2-JH1JH2) [nM] | IC50 (JAK3-JH1JH2) [nM] | IC50 (Tyk2-JH1JH2) [nM]
N#CC[C@H]1CC[C@H](n2c(CC(=O)Nc3ccc(CO)cc3)nc3cnc4[nH]ccc4c32)CC1 [Ex. 7, 2-(1-((1r,4r)-4-(Cyanomethyl)cyclohexyl)-1,6-dihydroimidazo[4,5-d]pyrrolo[2,3-b]pyridin-2-yl)-N-(4-(hydroxymethyl)phenyl)acetamide] | 0.1 | 0.6 | 13.3 | 0.9
N#CCc1ccc(NC(=O)Cc2nc3cnc4[nH]ccc4c3n2[C@H]2CC[C@H](CC#N)CC2)cc1 [Ex. 8, 2-(1-((1r,4r)-4-(Cyanomethyl)cyclohexyl)-1,6-dihydroimidazo[4,5-d]pyrrolo[2,3-b]pyridin-2-yl)-N-(4-(cyanomethyl)phenyl)acetamide] | 0.1 | 0.5 | 12.9 | 0.7
N#CC[C@H]1CC[C@H](n2c(-c3nc[nH]n3)nc3cnc4[nH]ccc4c32)CC1 [Ex. 9, 2-((1r,4r)-4-(2-(1H-1,2,4-Triazol-3-yl)imidazo[4,5-d]pyrrolo[2,3-b]pyridin-1(6H)-yl)cyclohexyl)acetonitrile] | 0.1 | 0.3 | 48.9 | 1.6
N#CC[C@H]1CC[C@H](n2c(CC(=O)N3CCC(O)CC3)nc3cnc4[nH]ccc4c32)CC1 [Ex. 12, 2-((1r,4r)-4-(2-(2-(4-Hydroxypiperidin-1-yl)-2-oxoethyl)imidazo[4,5-d]pyrrolo[2,3-b]pyridin-1(6H)-yl)cyclohexyl)acetonitrile] | 0.1 | 9.2 | 99.4 | 1.4
CCOP(=O)(Cc1ccc(NC(=O)Cc2nc3cnc4[nH]ccc4c3n2[C@H]2CC[C@H](CC#N)CC2)cc1)OCC [Ex. 108, Diethyl 4-(2-(1-((1r,4r)-4-(cyanomethyl)cyclohexyl)-1,6-dihydroimidazo[4,5-d]pyrrolo[2,3-b]pyridin-2-yl)acetamido)benzylphosphonate] | 0.6 | 3.8 |  | 7.1
C[Si](C)(C)[C@H]1CC[C@@H](NC(=O)Cc2nc3cnc4[nH]ccc4c3n2[C@H]2CC[C@H](CC#N)CC2)CC1 [Ex. 135, 2-(1-((1r,4r)-4-(Cyanomethyl)cyclohexyl)-1,6-dihydroimidazo[4,5-d]pyrrolo[2,3-b]pyridin-2-yl)-N-((1S,4S)-4-(trimethylsilyl)cyclohexyl)acetamide] | 0.8 | 4 |  | 8.7
C[Si](C)(C)[C@H]1CC[C@H](NC(=O)Cc2nc3cnc4[nH]ccc4c3n2[C@H]2CC[C@H](CC#N)CC2)CC1 [Ex. 167, 2-(1-((1r,4r)-4-(Cyanomethyl)cyclohexyl)-1,6-dihydroimidazo[4,5-d]pyrrolo[2,3-b]pyridin-2-yl)-N-((1r,4r)-4-(trimethylsilyl)cyclohexyl)acetamide] | 1.9 | 20.8 |  | 25.5
